The source of these data is patent US12281114B2, “NK3 modulators and uses thereof” (Kallyope, Inc., priority 2023, dated 2025).

Each structure is given as a SMILES string.

The target in one series is T1, human NK3 (Homo sapiens, UniProt P29371).
T1 sequence (P29371 1-465): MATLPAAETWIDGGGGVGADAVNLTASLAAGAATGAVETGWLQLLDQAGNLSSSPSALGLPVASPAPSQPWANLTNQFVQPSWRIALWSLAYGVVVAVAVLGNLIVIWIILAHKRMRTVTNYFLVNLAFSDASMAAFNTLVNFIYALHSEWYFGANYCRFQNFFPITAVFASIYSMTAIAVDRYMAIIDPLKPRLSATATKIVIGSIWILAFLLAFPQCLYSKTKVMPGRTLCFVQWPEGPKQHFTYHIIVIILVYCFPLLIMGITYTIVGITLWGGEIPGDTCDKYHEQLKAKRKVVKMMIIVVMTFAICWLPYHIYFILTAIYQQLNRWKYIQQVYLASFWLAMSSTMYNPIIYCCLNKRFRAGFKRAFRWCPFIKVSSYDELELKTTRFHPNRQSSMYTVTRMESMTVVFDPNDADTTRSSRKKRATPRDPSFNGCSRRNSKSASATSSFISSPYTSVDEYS
Briefly: FLIPR calcium assay in antagonist mode (NKB EC70 challenge). It is filed as cell-based. The following applies: stable cell line expressing human recombinant NK3; antagonist mode vs EC70 of NKB agonist. An outline of the steps:
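Recombinant human NK3 stable cells loaded with Calcium 6 dye were given compound, read for 10 min, then challenged with NKB at its predetermined EC70 and read 10 min by FLIPR. The second peak minus baseline was normalized to 10 μM and 0 μM antagonist controls, and fitted for IC50 and efficacy.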

The subject of series [1] is acute nitroglycerin (NTG) migraine model in rats. Briefly: Acute nitroglycerin (NTG) rat migraine model, periorbital von Frey threshold. The following applies: male Sprague Dawley rats, 10 mg/kg NTG i.p., 30 mg/kg test compound, 90 min; 50% periorbital threshold after compound / baseline x 100. It is filed as in vivo. As for the experimental part:
An acute nitroglycerin (NTG) model was used to assess migraine efficacy in rats (for a review see: Sureda-Gibert, P, Neurobiol Pain. 2022 August-December; 12: 100105). Briefly, male Sprague Dawley rats, 8-weeks old (Charles River Laboratories), were pair-housed in a 12-h light cycle room upon facility arrival and left to acclimate for a minimum of 72 h. Animals were provided standard rodent chow (PicoLab Rodent Diet, 5053) and water ad libitum. Following the acclimation period, rats underwent a single behavioral testing apparatus acclimation. Rats were left to freely move and habituate for a minimum of 20 min. The testing apparatus used was a Multiple Configuration Animal Enclosure (Ugo Basile, 37000-007) placed on a self-standing table with a mesh-perforated bottom.
Periorbital threshold was measured using the up-down method (Chaplan, S. R., et al., J Neurosci Methods, 1994 July; 53(1):55-63), in which von Frey filaments (Ugo Basile, 37450-275) of increasing forces (0.4-15 g) were applied to the periorbital region until an application of a filament evoked a response, typically indicated by a rapid withdrawal response or paw swipe to the periorbital region. Once a response was observed, four more readings were obtained following the first change of direction to determine the withdrawal threshold close to 50%. The 50% threshold was then calculated using the following formula: 50% threshold (g)=10^(X+kd)/10^4, where X=the value, in log units, of the final von Frey filament, k=tabular value for the response pattern, and d=the average increment, in log units, between von Frey filaments.
Following acclimation, a baseline assessment was performed, and rats were then randomized into balanced treatment groups using baseline periorbital threshold measurements. On the day of the experiment, rats (n=12/group) were weighed and administered 10 mg/kg NTG (2 mg/mL in 0.9% saline; Henry Schein, NDC-0517-4810-25) by intraperitoneal injection, immediately followed by their assigned compound treatment of either vehicle (0.25% methyl cellulose, 5% Tween 80, 0.02% sodium dodecyl sulfate (SDS) in Hanks' Buffered Salt Solution with Ca^2+ and Mg^2+), 10 mg/kg sumatriptan as a positive control (2 mg/mL in vehicle; Ambeed, A260899-1g) or 30 mg/kg test compound (10 mg/mL in vehicle).
Approximately 70 min post dosing, animals were placed in the behavioral testing apparatus and allowed to habituate to individual enclosures for a minimum of 20 min prior to von Frey assessment. Von Frey measurements were then recorded at 90 and 120. Upon final measurement, rats were immediately euthanized via CO2 asphyxiation followed by exsanguination. Blood was collected in lithium-heparin serum-separating tubes (BD, 365985) and processed for serum collection. Serum samples were then stored at −80° C.
Migraine efficacy (%) was calculated by dividing the 50% threshold (g) following administration of test compound by the baseline 50% threshold (g) and then multiplying by 100.

A further series addresses T2, P-glycoprotein (P-gp) (Homo sapiens, UniProt P08183).
T2 construct: expressed in transfected cells; host or cells: MDR1-MDCK II
Briefly: P-gp substrate assessment in MDR1-MDCK II cells. The format is in vitro ADME. The following applies: dog, MDCK-MDR1, pH 7.4.

T2 sequence (P08183 whole entry): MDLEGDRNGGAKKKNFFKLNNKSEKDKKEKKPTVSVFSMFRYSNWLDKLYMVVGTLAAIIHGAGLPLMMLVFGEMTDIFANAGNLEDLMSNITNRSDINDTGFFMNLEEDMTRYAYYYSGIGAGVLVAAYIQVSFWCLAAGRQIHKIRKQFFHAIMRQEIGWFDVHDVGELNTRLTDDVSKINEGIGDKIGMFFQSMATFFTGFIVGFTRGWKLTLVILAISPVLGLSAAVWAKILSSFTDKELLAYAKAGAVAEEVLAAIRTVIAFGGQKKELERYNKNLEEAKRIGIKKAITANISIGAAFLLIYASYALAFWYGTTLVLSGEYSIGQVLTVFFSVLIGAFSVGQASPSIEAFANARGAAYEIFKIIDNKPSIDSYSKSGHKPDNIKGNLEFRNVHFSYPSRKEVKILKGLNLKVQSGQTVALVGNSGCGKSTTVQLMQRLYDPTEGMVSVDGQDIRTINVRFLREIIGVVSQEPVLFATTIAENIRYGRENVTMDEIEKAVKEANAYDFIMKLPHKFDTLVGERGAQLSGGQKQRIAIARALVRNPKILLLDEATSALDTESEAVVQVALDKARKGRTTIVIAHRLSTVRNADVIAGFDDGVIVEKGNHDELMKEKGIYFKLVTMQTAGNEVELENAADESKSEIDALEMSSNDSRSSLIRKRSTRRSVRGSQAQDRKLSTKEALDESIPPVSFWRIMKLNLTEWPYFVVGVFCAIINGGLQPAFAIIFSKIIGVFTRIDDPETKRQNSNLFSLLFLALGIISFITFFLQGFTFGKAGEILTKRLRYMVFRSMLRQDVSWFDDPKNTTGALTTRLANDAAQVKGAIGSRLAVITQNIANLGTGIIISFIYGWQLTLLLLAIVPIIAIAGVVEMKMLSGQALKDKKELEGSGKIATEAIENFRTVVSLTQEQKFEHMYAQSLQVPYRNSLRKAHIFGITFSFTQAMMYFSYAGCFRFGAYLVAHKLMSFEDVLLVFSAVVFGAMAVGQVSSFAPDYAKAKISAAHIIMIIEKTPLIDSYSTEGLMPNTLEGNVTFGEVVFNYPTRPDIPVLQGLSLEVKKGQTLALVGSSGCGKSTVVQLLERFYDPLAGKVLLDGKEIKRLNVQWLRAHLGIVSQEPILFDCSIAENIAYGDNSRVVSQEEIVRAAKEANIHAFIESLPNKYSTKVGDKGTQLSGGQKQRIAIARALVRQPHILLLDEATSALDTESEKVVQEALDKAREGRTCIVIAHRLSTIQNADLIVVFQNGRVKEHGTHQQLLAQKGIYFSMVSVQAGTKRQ
Protocol for P-glycoprotein (P-gp): MDR1-MDCK II from passage 5-35 were used for P-gp substrate assessment studies. Briefly, test compounds were diluted with transport buffer (HBSS with 10 mM HEPES, pH 7.4) from stock solution to a concentration of 2.00 μM (DMSO<1%) and applied to the apical or basolateral side of the cell monolayer. […] Compounds were quantified by LC/MS/MS analysis based on the peak area ratio of analyte/internal standard. The efflux ratio of each compound was determined according to the following equation: Efflux Ratio=Papp (BA)/Papp (AB).

For the molecule `Cn1cc(-c2cccc(F)c2-c2nc3cc(C(=O)N[C@]45CC[C@](CO)(C4)OC5)ccn3c2Cl)c(F)n1` (single isomer, unassigned; second eluting) [Compound 920, 3-chloro-2-(2-fluoro-6-(3-fluoro-1-methyl-1H-pyrazol-4-yl)phenyl)-N-(1-(hydroxymethyl)-2-oxabicyclo[2.2.1]heptan-4-yl)imidazo[1,2-a]pyridine-7-carboxamide, second eluting enantiomer], the 50% inhibitory concentration (IC50) on human NK3 turned out to be 1.06 nM. Besides, the “Efficacy (%)” value in series [1] is reported as 100%.

Take `Cc1nn(C)cc1-c1ccccc1-c1nc2cc(C(=O)N[C@@H]3CO[C@H]4[C@@H]3OC[C@H]4O)ccn2c1Cl` [Compound 7, 3-chloro-2-(2-(1,3-dimethyl-1H-pyrazol-4-yl)phenyl)-N-((3R,3aR,6R,6aR)-6-hydroxyhexahydrofuro[3,2-b]furan-3-yl)imidazo[1,2-a]pyridine-7-carboxamide]: the IC50 at human NK3 was 1.21 nM. Further, in series [1], the “Efficacy (%)” value is 81%. At P-glycoprotein (P-gp), the efflux ratio at 150 min, 2 μM is 32.7.

`Cc1nn(C)cc1-c1cc(F)ccc1-c1nc2cc(C(=O)N[C@@H]3CO[C@H]4[C@@H]3OC[C@H]4O)ccn2c1Cl` [Compound 16, 3-chloro-2-(2-(1,3-dimethyl-1H-pyrazol-4-yl)-4-fluorophenyl)-N-((3R,3aR,6R,6aR)-6-hydroxyhexahydrofuro[3,2-b]furan-3-yl)imidazo[1,2-a]pyridine-7-carboxamide]: in series [1], the “Efficacy (%)” value is on record as 82%.

Regarding `Cc1nn(C)cc1-c1cc(F)cc(F)c1-c1nc2cc(C(=O)N[C@@H]3CO[C@H]4[C@@H]3OC[C@H]4O)ccn2c1Cl` [Compound 787, 3-chloro-2-(2-(1,3-dimethyl-1H-pyrazol-4-yl)-4,6-difluorophenyl)-N-((3R,3aR,6R,6aR)-6-hydroxyhexahydrofuro[3,2-b]furan-3-yl)imidazo[1,2-a]pyridine-7-carboxamide], on human NK3, the IC50 stood at 1.51 nM. Also, the “Efficacy (%)” value in series [1] is reported as 70%.

For `Cn1cc(-c2cccc(F)c2-c2nc3cc(C(=O)NC45COC(C)(C4)C5)ccn3c2C#N)c(F)n1` [Compound 845, 3-cyano-2-(2-fluoro-6-(3-fluoro-1-methyl-1H-pyrazol-4-yl)phenyl)-N-(1-methyl-2-oxabicyclo[2.1.1]hexan-4-yl)imidazo[1,2-a]pyridine-7-carboxamide], on human NK3, the 50% inhibitory concentration (IC50) is 2.61 nM. Further, the “Efficacy (%)” value in series [1] was 92%.

As for `Cn1cc(-c2cccc(F)c2-c2nc3cc(C(=O)N4CCC5(CC4)CC(C)(O)C5)ccn3c2Cl)cn1` [Compound 915, (3-chloro-2-(2-fluoro-6-(1-methyl-1H-pyrazol-4-yl)phenyl)imidazo[1,2-a]pyridin-7-yl)(2-hydroxy-2-methyl-7-azaspiro[3.5]nonan-7-yl)methanone], the concentration for half-maximal inhibition (IC50) on human NK3 came to 4.22 nM. In addition, the “Efficacy (%)” value in series [1] is recorded as 92%.

Broadly, the IC50 is the concentration that inhibits the measured activity by half. The term efflux ratio denotes a quotient of directional permeabilities that is used to spot active efflux.
